Values of other authors as cited in PMC2884396 (Journal of medicinal chemistry, 2010).

How the values were obtained:
[1] = tested on: glucocorticoid receptor (GR); conditions: ref [24]-[27]
[2] = tested on: androgen receptor (AR); conditions: ref [24]-[27]

SMILES: Cn1c(C#N)ccc1-c1ccc2c(c1)C(C)(C)OC(=S)N2 [Tanaproget (1), Tanaproget]
- affinity for GR [1]: very low affinity
- affinity for AR [2]: very low affinity
